Read-outs that look alike come from different tables or passages of the source.
Assays:
Type in all cases: cell-based
[1] = biological target: T1, Estrogen Receptor β (Homo sapiens, UniProt Q92731); assay: Target selectivity counterscreen, Estrogen Receptor β reporter assay; details: receptor agonist at ~EC80
T1 construct: host or cells: engineered reporter cells of the kit
Protocol: (§1) Target Selectivity Assays
(§2) To determine species selectivity, a Mouse PPARα Reporter Assay System was used (Indigo Biosciences, Cat. #M00111). Activity of test compounds to antagonize or agonize other isoforms of human PPAR, for example β/δ and γ, were assessed using the corresponding kits from Indigo Biosciences (Cat. #IB00121 and #IB00101, respectively). In addition to PPAR activity, compounds were also screened for activity against other nuclear hormone receptors including Estrogen Receptor β, Glucocorticoid Receptor and Thyroid Receptor β using commercially available kits (Indigo Biosciences, Cat. #IB00411, IB00201 and IB01101, respectively). Each assay system from Indigo Biosciences uses technology analogous to the human PPARα kit, with the variance being that the cells used for each assay were engineered to over-express the receptor of interest. In addition, the appropriate receptor agonist (included with each kit) was used at ˜EC80 for assays in which antagonist potency was being assessed.

[2] = biological target: T2, Glucocorticoid Receptor (Homo sapiens, UniProt P04150); assay: Target selectivity counterscreen, Glucocorticoid Receptor reporter assay; details: receptor agonist at ~EC80
T2 construct: host or cells: engineered reporter cells of the kit
T2 sequence (P04150 1-777): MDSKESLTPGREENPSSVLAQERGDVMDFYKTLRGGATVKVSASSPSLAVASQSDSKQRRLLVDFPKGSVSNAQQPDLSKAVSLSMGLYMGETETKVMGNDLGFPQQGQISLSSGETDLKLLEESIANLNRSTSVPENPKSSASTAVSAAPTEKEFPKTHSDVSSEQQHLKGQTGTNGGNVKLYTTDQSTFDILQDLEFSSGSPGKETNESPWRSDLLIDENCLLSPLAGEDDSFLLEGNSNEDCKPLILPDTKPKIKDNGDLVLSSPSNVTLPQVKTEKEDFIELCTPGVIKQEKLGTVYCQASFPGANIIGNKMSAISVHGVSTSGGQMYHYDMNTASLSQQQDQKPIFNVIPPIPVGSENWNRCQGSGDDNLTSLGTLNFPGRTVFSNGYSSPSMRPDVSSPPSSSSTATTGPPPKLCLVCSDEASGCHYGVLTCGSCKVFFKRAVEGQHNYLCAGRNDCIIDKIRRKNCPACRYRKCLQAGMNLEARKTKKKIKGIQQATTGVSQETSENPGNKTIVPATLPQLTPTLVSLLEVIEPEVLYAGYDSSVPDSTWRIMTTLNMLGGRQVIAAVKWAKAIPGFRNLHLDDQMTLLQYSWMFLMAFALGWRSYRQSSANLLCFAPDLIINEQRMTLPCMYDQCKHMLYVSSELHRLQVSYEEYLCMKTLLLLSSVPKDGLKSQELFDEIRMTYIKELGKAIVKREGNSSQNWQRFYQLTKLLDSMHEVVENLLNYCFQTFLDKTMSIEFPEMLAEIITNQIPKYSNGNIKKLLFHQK
Protocol: as §1, §2

[3] = biological target: T3, Thyroid Receptor β (Homo sapiens, UniProt P10828); assay: Target selectivity counterscreen, Thyroid Receptor β reporter assay; details: receptor agonist at ~EC80
T3 construct: host or cells: engineered reporter cells of the kit
T3 sequence (P10828 1-461): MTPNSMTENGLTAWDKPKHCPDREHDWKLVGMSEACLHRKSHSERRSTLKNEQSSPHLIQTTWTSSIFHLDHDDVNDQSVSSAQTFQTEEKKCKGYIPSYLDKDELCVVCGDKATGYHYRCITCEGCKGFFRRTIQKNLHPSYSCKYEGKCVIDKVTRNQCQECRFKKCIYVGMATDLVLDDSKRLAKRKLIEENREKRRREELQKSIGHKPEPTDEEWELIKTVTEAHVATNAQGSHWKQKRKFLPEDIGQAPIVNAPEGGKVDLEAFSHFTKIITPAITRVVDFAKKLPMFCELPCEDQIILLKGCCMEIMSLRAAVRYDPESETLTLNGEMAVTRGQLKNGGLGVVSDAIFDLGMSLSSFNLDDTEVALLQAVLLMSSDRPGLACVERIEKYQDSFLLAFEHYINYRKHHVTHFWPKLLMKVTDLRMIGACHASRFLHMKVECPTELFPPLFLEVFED
Protocol: as §1, §2

[4] = biological target: T4, PPAR beta/delta (Homo sapiens, UniProt Q03181); assay: Target selectivity counterscreen, PPAR β/δ reporter assay; details: receptor agonist at ~EC80
T4 construct: host or cells: engineered reporter cells of the kit
T4 sequence (Q03181 1-441): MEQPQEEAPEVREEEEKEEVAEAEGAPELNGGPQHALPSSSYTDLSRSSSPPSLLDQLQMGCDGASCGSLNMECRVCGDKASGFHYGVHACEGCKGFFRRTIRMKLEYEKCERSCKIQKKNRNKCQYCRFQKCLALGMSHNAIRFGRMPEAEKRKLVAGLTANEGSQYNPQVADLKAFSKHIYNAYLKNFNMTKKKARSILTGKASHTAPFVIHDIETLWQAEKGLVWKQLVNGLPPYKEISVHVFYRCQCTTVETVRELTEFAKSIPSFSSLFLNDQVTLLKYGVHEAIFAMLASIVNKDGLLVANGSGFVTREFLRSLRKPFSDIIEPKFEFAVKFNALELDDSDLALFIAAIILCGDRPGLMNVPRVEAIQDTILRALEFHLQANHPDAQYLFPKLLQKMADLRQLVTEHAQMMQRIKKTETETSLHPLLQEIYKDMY
Protocol: as §1, §2

[5] = biological target: T5, Human PPARα (Homo sapiens, UniProt Q07869); assay: Human PPARα Reporter Assay (luciferase)
T5 construct: host or cells: proprietary non-human mammalian cells
T5 sequence (Q07869 1-468): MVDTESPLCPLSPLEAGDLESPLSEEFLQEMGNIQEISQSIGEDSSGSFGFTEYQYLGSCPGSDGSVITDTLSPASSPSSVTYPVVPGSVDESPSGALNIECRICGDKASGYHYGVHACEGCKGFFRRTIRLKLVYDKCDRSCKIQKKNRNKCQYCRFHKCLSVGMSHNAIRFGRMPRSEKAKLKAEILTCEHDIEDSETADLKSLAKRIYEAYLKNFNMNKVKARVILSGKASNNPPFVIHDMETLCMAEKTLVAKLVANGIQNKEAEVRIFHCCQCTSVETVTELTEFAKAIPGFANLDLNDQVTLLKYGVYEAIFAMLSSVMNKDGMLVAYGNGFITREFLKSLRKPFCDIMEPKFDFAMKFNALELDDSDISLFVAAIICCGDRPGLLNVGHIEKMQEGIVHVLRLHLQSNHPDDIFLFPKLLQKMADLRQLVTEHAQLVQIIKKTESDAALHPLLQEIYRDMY
Outline: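 Agonist or antagonist activity read as luciferase light from engineered reporter cells carrying human PPARα and a responsive reporter gene. Cells got compound immediately on dispensing, incubated overnight, then treatment media swapped for luciferase detection reagent.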

[6] = biological target: T6, PPAR gamma (Homo sapiens, UniProt P37231); assay: Target selectivity counterscreen, PPAR γ reporter assay; details: receptor agonist at ~EC80
T6 construct: host or cells: engineered reporter cells of the kit
T6 sequence (P37231 1-505): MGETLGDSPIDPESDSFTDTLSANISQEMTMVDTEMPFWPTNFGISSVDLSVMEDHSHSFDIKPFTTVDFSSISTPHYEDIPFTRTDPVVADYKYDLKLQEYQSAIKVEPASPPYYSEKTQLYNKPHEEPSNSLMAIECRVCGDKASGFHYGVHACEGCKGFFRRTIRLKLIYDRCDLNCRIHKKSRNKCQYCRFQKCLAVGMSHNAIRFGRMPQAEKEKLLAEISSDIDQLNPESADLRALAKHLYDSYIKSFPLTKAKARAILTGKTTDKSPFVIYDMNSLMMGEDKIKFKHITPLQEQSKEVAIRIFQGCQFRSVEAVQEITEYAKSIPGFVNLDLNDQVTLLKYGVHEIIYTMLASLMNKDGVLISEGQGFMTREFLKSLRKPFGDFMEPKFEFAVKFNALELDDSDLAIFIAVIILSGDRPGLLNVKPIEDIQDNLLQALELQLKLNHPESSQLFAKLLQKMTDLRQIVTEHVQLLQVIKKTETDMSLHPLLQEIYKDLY
Protocol: as §1, §2

T1 sequence (Q92731 whole entry): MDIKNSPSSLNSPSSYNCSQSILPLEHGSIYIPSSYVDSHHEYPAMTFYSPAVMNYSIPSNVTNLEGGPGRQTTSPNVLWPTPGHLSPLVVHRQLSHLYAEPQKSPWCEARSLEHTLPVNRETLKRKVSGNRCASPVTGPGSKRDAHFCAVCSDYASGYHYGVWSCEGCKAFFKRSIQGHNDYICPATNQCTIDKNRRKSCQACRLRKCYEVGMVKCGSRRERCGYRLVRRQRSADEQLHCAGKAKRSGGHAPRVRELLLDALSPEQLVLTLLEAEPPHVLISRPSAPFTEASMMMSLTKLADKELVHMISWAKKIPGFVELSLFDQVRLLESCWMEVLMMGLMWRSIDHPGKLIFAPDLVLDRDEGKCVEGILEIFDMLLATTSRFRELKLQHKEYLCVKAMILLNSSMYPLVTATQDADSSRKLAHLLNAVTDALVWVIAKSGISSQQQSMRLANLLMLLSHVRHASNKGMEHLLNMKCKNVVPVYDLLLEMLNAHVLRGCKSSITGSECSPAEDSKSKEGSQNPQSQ

`CCn1c(CCCc2ccc(-c3cccc(CC(=O)O)c3)cc2)nn(Cc2ccccc2)c1=O` [Example 23, 2-(4′-(3-(1-Benzyl-4-ethyl-5-oxo-4,5-dihydro-1H-1,2,4-triazol-3-yl)propyl)-[1,1′-biphenyl]-3-yl)acetic acid] gave an IC50 [1] of 17.5 µM, an IC50 [2] of over 10 µM and an IC50 [3] of over 10 µM. It also gave an IC50 [4] of over 50 µM, an IC50 ([5]; counterscreen table, antagonist potency, read-out: PPAR alpha IC50) of 0.025 µM and an IC50 ([5]; human PPARα reporter cells, overnight incubation, antagonism, read-out: Luciferase IC50) of 7.31 µM. It also gave an IC50 [6] of over 50 µM.

From patent publication US9505728B2, “Triazolone compounds and uses thereof” (INCEPTION 2, INC., priority 2012, dated 2016)
